Reference: US12049439B2 (OrsoBio, Inc., priority 2018, dated 2024)
pEC50: −log10 of the molar value.

Each compound was assayed on PC-3 cells (assay: PC-3 Oxygen Rate Consumption (OCR) Assay). Settings: Homo sapiens, 0.05 h, medium with 2% FBS, OCR at 3-min post-injection normalized to % increase over DMSO-treated cells, concentration for half-maximal OCR increase, read-out: EC50-PC3-OCR-FBS-3min.
Assay type: cell-based
Summary of the method: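 Oxygen consumption read on Seahorse XFe96: three basal measurements, then compound injection and 10 cycles over 30 min. EC50 defined as concentration giving half-maximal OCR rise, using 3-min post-injection values as % above DMSO controls, six replicates per treatment, in PC-3 cells in glucose/pyruvate medium.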

Going from `CCS(=O)(=O)c1ccc(S(=O)(=O)Nc2cc(C(F)(F)F)ccc2C(=O)NC23CC(F)(C2)C3)cc1` [Example 26, 2-((4-(ethylsulfonyl)phenyl)sulfonamido)-N-(3-fluorobicyclo[1.1.1]pentan-1-yl)-4-(trifluoromethyl)benzamide] to `CCS(=O)(=O)c1ccc(S(=O)(=O)Nc2cc(C(F)(F)F)ccc2C(=O)NC23CC(C#N)(C2)C3)cc1` [Example 25, N-(3-cyanobicyclo[1.1.1]pentan-1-yl)-2-((4-(ethylsulfonyl)phenyl)sulfonamido)-4-(trifluoromethyl)benzamide], the pEC50 falls from 5.16 to ≤ 4.30. The first is the more potent here.

First: COc1ccc(C(=O)NC23CC(C(F)(F)F)(C2)C3)c(NS(=O)(=O)c2ccc(S(C)(=O)=O)cc2)c1 [Example 88, 4-methoxy-2-((4-(methylsulfonyl)phenyl)sulfonamido)-N-(3-(trifluoromethyl)bicyclo[1.1.1]pentan-1-yl)benzamide]
Second: CS(=O)(=O)c1ccc(S(=O)(=O)Nc2cc(S(F)(F)(F)(F)F)ccc2C(=O)NC23CC(C(F)(F)F)(C2)C3)cc1 [Example 154, 2-((4-(methylsulfonyl)phenyl)sulfonamido)-4-(pentafluoro-λ^6-sulfanyl)-N-(3-(trifluoromethyl)bicyclo[1.1.1]pentan-1-yl)benzamide]
The pEC50 of the first is 0.52 log units lower: 4.58 for the first, 5.10 for the second.

First: CS(=O)(=O)Nc1cc(Cl)ccc1C(=O)NC12CCC(C#N)(CC1)CC2 [Example 214, 4-chloro-N-(4-cyanobicyclo[2.2.2]octan-1-yl)-2-(methylsulfonamido)benzamide]
Second: CS(=O)(=O)Nc1cc(Br)ccc1C(=O)NC12CCC(C#N)(CC1)CC2 [Example 194, 4-bromo-N-(4-cyanobicyclo[2.2.2]octan-1-yl)-2-(methylsulfonamido)benzamide]
The pEC50 of the first is higher: 4.58 for the first, ≤ 4.30 for the second.

First: CS(=O)(=O)Nc1cc(Br)ccc1C(=O)NC12CC(C1)C2 [Example 47, N-(bicyclo[1.1.1]pentan-1-yl)-4-bromo-2-(methylsulfonamido)benzamide]
Second: CS(=O)(=O)Nc1cc(C(F)(F)F)ccc1C(=O)NC12CC(C(F)(F)F)(C1)C2 [Example 147, 2-(methylsulfonamido)-4-(trifluoromethyl)-N-(3-(trifluoromethyl)bicyclo[1.1.1]pentan-1-yl)benzamide]
The pEC50 of the first is 1.04 log units lower: 4.76 for the first, 5.80 for the second.

Going from `O=C(NC12CC(C(F)(F)F)(C1)C2)c1ccc(C(F)(F)F)cc1NS(=O)(=O)c1ccc(F)cc1` [Example 109] to `NS(=O)(=O)c1ccc(S(=O)(=O)Nc2cc(C(F)(F)F)ccc2C(=O)NC23CC(C(F)(F)F)(C2)C3)cc1` [Example 58, 2-((4-sulfamoylphenyl)sulfonamido)-4-(trifluoromethyl)-N-(3-(trifluoromethyl)bicyclo[1.1.1]pentan-1-yl)benzamide], the pEC50 falls from 6.42 to 4.20 (2.22 log units). The first is the more potent here.

`CC(C)(C)S(=O)(=O)Nc1ccc(Cl)cc1C(=O)NC12CC(C#N)(C1)C2` [Example 85, 5-chloro-N-(3-cyanobicyclo[1.1.1]pentan-1-yl)-2-((1,1-dimethylethyl)sulfonamido)benzamide] and `COC12CC(NC(=O)c3cc(C(F)(F)F)ccc3NS(=O)(=O)C(C)(C)C)(C1)C2` [Example 169, 2-((1,1-dimethylethyl)sulfonamido)-N-(3-methoxybicyclo[1.1.1]pentan-1-yl)-5-(trifluoromethyl)benzamide] are within 0.2 log units of each other in pEC50: 4.90 for the first, 4.94 for the second.

Going from `COCCS(=O)(=O)Nc1ccc(C(F)(F)F)cc1C(=O)NC12CCC(C#N)(CC1)CC2` [Example 128, N-(4-cyanobicyclo[2.2.2]octan-1-yl)-2-((2-methoxyethyl)sulfonamido)-5-(trifluoromethyl)benzamide] to `CC(C)(C)S(=O)(=O)Nc1ccc(C(F)(F)F)cc1C(=O)NC12CCC(C#N)(CC1)CC2` [Example 191, N-(4-cyanobicyclo[2.2.2]octan-1-yl)-2-((1,1-dimethylethyl)sulfonamido)-5-(trifluoromethyl)benzamide], the pEC50 rises from 4.81 to 5.75 (0.94 log units). The second is the more potent here.

`N#CC12CCC(NC(=O)c3ccc(SC(F)(F)F)cc3NS(=O)(=O)C3(C#N)CC3)(CC1)CC2` [Example 226, N-(4-cyanobicyclo[2.2.2]octan-1-yl)-2-((1-cyanocyclopropane)-1-sulfonamido)-4-((trifluoromethyl)thio)benzamide] and `CS(=O)(=O)Nc1ccc(SC(F)(F)F)cc1C(=O)NC12CCC(C#N)(CC1)CC2` [Example 235, N-(4-cyanobicyclo[2.2.2]octan-1-yl)-2-(methylsulfonamido)-5-((trifluoromethyl)thio)benzamide] are within 0.2 log units of each other in pEC50: 5.15 for the first, 5.34 for the second.

First: O=C(NC12CC(C(F)(F)F)(C1)C2)c1ccc(C(F)(F)F)cc1NS(=O)(=O)c1ccc(OC(F)(F)F)cc1 [Example 6, 2-((4-(trifluoromethoxy)phenyl)sulfonamido)-4-(trifluoromethyl)-N-(3-(trifluoromethyl)bicyclo[1.1.1]pentan-1-yl)benzamide]
Second: COCCOc1ccc(S(=O)(=O)Nc2cc(C(F)(F)F)ccc2C(=O)NC23CC(C(F)(F)F)(C2)C3)cc1 [Example 112, 2-((4-(2-methoxyethoxy)phenyl)sulfonamido)-4-(trifluoromethyl)-N-(3-(trifluoromethyl)bicyclo[1.1.1]pentan-1-yl)benzamide]
The pEC50 of the first is 0.68 log units higher: 6.57 for the first, 5.89 for the second.

Going from `N#CC12CC(NC(=O)c3ccc(C(F)(F)F)cc3NS(=O)(=O)c3ccccc3)(C1)C2` [Example 41, N-(3-cyanobicyclo[1.1.1]pentan-1-yl)-2-(phenylsulfonamido)-4-(trifluoromethyl)benzamide] to `O=C(NC12CC(C(F)(F)F)(C1)C2)c1ccc(C(F)(F)F)cc1NS(=O)(=O)c1ccc(-c2ncccn2)cc1` [Example 101, 2-((4-(pyrimidin-2-yl)phenyl)sulfonamido)-4-(trifluoromethyl)-N-(3-(trifluoromethyl)bicyclo[1.1.1]pentan-1-yl)benzamide], the pEC50 rises from 5.66 to 5.93 (0.27 log units).

Going from `CC(C)(C)S(=O)(=O)Nc1cc(C#N)ccc1C(=O)NC12CCC(C#N)(CC1)CC2` [Example 77, 4-cyano-N-(4-cyanobicyclo[2.2.2]octan-1-yl)-2-((1,1-dimethylethyl)sulfonamido)benzamide] to `CS(=O)(=O)Nc1cc(C(F)(F)F)ccc1C(=O)NC12CCC(C#N)(CC1)CC2` [Example 168, N-(4-cyanobicyclo[2.2.2]octan-1-yl)-2-(methylsulfonamido)-4-(trifluoromethyl)benzamide], the pEC50 falls from 5.06 to 4.82 (0.24 log units). The first is the more potent here.

Going from `N#CC1(S(=O)(=O)Nc2ccc(Cl)cc2C(=O)NC23CCC(C(F)(F)F)(CC2)CC3)CC1` [Example 209, 5-chloro-2-((1-cyanocyclopropane)-1-sulfonamido)-N-(4-(trifluoromethyl)bicyclo[2.2.2]octan-1-yl)benzamide] to `N#CC12CCC(NC(=O)c3ccc(Cl)cc3NS(=O)(=O)CCC(F)(F)F)(CC1)CC2` [Example 135, 4-chloro-N-(4-cyanobicyclo[2.2.2]octan-1-yl)-2-((3,3,3-trifluoropropyl)sulfonamido)benzamide], the pEC50 falls from 6.19 to 5.79 (0.40 log units).

First: N#CC12CCC(NC(=O)c3cc(C(F)(F)F)ccc3NS(=O)(=O)C3CCOCC3)(CC1)CC2 [Example 204, N-(4-cyanobicyclo[2.2.2]octan-1-yl)-2-((tetrahydro-2H-pyran)-4-sulfonamido)-5-(trifluoromethyl)benzamide]
Second: CC(C)S(=O)(=O)Nc1cc(C(F)(F)F)ccc1C(=O)NC12CCC(C#N)(CC1)CC2 [Example 57, N-(4-cyanobicyclo[2.2.2]octan-1-yl)-2-((1-methylethyl)sulfonamido)-4-(trifluoromethyl)benzamide]
The pEC50 of the first is 0.29 log units lower: 4.80 for the first, 5.09 for the second.

Compared with `CC(C)(C)S(=O)(=O)Nc1ccc(-c2ncccn2)cc1C(=O)NC12CC(C(F)(F)F)(C1)C2` [Example 100, 2-((1,1-dimethylethyl)sulfonamido)-5-(pyrimidin-2-yl)-N-(3-(trifluoromethyl)bicyclo[1.1.1]pentan-1-yl)benzamide], `CC(C)S(=O)(=O)Nc1cc(C(F)(F)F)ccc1C(=O)NC12CC(C(F)(F)F)(C1)C2` [Example 56, 2-((1-methylethyl)sulfonamido)-4-(trifluoromethyl)-N-(3-(trifluoromethyl)bicyclo[1.1.1]pentan-1-yl)benzamide] is 1.23 log units higher in pEC50: 4.85 for the first, 6.08 for the second. The second is the more potent here.

First: CS(=O)(=O)Nc1ccc(C(F)(F)F)cc1C(=O)NC12CC3CC(CC(C#N)(C3)C1)C2 [Example 175, N-((1R,5R)-3-cyanoadamantan-1-yl)-2-(methylsulfonamido)-5-(trifluoromethyl)benzamide]
Second: CS(=O)(=O)Nc1cc(OC(F)(F)F)ccc1C(=O)NC12CCC(C#N)(CC1)CC2 [Example 203, N-(4-cyanobicyclo[2.2.2]octan-1-yl)-2-(methylsulfonamido)-4-(trifluoromethoxy)benzamide]
The pEC50 of the first is 0.58 log units higher: 5.22 for the first, 4.64 for the second. The first is the more potent here.

Going from `O=C(NC12CC(C(F)(F)F)(C1)C2)c1ccc(F)cc1NS(=O)(=O)c1ccc(S(=O)(=O)C2CC2)cc1` [Example 28, 2-((4-(cyclopropylsulfonyl)phenyl)sulfonamido)-4-fluoro-N-(3-(trifluoromethyl)bicyclo[1.1.1]pentan-1-yl)benzamide] to `CS(=O)(=O)c1ccc(S(=O)(=O)Nc2ccc(C(F)(F)F)cc2C(=O)NC23CC(C(F)(F)F)(C2)C3)cc1` [Example 86, 2-((4-(methylsulfonyl)phenyl)sulfonamido)-5-(trifluoromethyl)-N-(3-(trifluoromethyl)bicyclo[1.1.1]pentan-1-yl)benzamide], the pEC50 falls from 5.56 to 5.08 (0.48 log units).

Work on `O=C(NC12CCC(C(F)(F)F)(CC1)CC2)c1ccc(C(F)(F)F)cc1NS(=O)(=O)C1CCS(=O)(=O)CC1` [Example 230, 2-((1,1-dioxidotetrahydro-2H-thiopyran)-4-sulfonamido)-4-(trifluoromethyl)-N-(4-(trifluoromethyl)bicyclo[2.2.2]octan-1-yl)benzamide] yielded a pEC50 of 5.25.

Same assay, conditions: medium with 2% FBS, OCR at 3-min post-injection normalized to % increase over DMSO-treated cells, concentration for half-maximal OCR increase, read-out: EC50-PC3-OCR-FBS-3min

For `N#CC1(S(=O)(=O)Nc2ccc(C(F)(F)F)cc2C(=O)NC23CC(C(F)(F)F)(C2)C3)CC1` [Example 108, 2-((1-cyanocyclopropane)-1-sulfonamido)-5-(trifluoromethyl)-N-(3-(trifluoromethyl)bicyclo[1.1.1]pentan-1-yl)benzamide], the pEC50 was 5.07.
